Reference: article PMC11463018 (Journal of Enzyme Inhibition and Medicinal Chemistry, 2024)

Assays:
ACHN = test: NCI-60 screening, ACHN; assay type: cell-based; settings: Homo sapiens, read-out: GI50, ACHN
UACC-62 = test: NCI-60 screening, UACC-62; assay type: cell-based; settings: Homo sapiens, UACC-62, read-out: GI50, UACC-62
JAK2 = JAK2 (Homo sapiens, UniProt O60674); test: Kinase inhibition assay; assay type: biochemical
HDAC8 = HDAC8 (Homo sapiens, UniProt Q9BY41); test: In vitro HDAC enzyme assay; assay type: biochemical
HDAC8, sequence (Q9BY41 whole entry): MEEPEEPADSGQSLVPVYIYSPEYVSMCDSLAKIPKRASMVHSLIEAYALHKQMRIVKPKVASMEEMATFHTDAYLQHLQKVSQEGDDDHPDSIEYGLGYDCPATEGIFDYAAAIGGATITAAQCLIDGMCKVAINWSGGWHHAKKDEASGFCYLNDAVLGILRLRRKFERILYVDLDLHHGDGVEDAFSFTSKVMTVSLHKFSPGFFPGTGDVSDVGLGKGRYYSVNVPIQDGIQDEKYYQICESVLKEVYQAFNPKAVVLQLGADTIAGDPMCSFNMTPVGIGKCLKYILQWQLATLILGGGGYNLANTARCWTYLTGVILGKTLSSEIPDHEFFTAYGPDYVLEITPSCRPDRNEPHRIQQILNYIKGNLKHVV

MOLT-4 = test: NCI-60 screening, MOLT-4; assay type: cell-based; settings: Homo sapiens, MOLT-4, read-out: GI50, MOLT-4
HDAC6 = biological target: T1, HDAC6 (Homo sapiens, UniProt Q9UBN7); test: In vitro HDAC enzyme assay; assay type: biochemical
T1 sequence (Q9UBN7 1-1215): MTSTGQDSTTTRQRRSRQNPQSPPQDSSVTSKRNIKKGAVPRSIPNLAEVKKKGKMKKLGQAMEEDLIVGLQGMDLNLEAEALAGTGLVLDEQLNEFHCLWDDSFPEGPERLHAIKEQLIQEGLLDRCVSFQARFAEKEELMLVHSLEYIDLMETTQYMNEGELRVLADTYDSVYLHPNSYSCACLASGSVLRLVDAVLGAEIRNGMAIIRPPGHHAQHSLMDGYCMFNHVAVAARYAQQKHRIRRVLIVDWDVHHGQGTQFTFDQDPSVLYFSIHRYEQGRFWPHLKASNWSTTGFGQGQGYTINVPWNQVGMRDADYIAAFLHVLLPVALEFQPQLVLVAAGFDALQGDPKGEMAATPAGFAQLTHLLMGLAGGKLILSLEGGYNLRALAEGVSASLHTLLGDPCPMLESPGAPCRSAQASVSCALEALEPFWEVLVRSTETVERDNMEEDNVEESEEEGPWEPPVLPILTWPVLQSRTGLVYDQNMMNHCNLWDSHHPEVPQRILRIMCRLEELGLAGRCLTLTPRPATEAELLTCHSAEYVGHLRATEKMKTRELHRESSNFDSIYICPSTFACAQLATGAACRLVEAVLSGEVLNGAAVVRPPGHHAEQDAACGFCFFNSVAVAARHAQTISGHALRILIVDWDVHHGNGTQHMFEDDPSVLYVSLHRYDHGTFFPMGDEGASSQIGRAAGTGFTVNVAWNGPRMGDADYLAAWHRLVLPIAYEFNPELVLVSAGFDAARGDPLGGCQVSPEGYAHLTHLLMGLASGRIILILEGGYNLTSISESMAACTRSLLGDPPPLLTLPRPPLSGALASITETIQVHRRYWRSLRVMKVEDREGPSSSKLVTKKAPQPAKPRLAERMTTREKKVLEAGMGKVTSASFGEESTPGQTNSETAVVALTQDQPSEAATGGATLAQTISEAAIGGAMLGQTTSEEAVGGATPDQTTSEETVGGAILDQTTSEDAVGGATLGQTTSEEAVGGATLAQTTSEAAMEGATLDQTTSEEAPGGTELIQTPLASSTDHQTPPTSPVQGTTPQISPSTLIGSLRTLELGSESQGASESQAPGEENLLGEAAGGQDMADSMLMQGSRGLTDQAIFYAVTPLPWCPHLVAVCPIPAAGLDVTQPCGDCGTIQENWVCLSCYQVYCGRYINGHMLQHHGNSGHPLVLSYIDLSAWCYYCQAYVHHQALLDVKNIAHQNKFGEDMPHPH

SNB-19 = test: NCI-60 screening, SNB-19; assay type: cell-based; settings: Homo sapiens, SNB-19, read-out: GI50, SNB-19
HDAC5 = HDAC5 (Homo sapiens, UniProt Q9UQL6); test: In vitro HDAC enzyme assay; assay type: biochemical
HDAC5, sequence (Q9UQL6 whole entry): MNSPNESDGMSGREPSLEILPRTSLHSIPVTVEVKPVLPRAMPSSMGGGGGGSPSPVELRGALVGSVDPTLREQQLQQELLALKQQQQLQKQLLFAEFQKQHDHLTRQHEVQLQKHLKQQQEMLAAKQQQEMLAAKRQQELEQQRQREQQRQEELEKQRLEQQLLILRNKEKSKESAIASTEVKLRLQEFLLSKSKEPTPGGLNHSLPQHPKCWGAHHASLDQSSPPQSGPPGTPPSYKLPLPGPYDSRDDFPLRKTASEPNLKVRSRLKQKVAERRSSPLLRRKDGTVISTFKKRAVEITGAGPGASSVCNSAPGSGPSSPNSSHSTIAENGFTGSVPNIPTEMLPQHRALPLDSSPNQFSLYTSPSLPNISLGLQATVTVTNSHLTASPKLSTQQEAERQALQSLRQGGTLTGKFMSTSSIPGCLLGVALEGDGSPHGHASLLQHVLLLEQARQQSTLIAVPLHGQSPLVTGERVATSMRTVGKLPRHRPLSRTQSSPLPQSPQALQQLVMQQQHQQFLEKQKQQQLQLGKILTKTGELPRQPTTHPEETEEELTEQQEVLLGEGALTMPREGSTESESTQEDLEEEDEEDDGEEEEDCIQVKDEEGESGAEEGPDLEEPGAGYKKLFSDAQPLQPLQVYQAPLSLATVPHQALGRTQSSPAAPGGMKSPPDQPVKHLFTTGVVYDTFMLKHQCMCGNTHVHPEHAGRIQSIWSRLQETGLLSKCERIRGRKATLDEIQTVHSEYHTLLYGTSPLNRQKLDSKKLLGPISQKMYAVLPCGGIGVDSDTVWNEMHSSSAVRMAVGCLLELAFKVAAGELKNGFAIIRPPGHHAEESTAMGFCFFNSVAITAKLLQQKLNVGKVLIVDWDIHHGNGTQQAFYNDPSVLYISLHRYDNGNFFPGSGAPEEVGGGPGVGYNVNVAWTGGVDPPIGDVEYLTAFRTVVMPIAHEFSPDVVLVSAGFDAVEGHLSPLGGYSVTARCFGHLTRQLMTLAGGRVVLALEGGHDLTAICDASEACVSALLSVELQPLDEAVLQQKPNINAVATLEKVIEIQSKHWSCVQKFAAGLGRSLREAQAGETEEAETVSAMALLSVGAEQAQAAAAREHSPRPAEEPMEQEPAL

SK-MEL-5 = test: NCI-60 screening, SK-MEL-5; assay type: cell-based; settings: Homo sapiens, SK-MEL-5, read-out: GI50, SK-MEL-5
HCT-116 = test: NCI-60 screening, HCT-116; assay type: cell-based; settings: Homo sapiens, HCT-116, read-out: GI50, HCT-116
HCT-15 = test: NCI-60 screening, HCT-15; assay type: cell-based; settings: Homo sapiens, HCT-15, read-out: GI50, HCT-15
HDAC2 = HDAC2 (Homo sapiens, UniProt Q92769); test: In vitro HDAC enzyme assay; assay type: biochemical
HDAC2, sequence (Q92769 whole entry): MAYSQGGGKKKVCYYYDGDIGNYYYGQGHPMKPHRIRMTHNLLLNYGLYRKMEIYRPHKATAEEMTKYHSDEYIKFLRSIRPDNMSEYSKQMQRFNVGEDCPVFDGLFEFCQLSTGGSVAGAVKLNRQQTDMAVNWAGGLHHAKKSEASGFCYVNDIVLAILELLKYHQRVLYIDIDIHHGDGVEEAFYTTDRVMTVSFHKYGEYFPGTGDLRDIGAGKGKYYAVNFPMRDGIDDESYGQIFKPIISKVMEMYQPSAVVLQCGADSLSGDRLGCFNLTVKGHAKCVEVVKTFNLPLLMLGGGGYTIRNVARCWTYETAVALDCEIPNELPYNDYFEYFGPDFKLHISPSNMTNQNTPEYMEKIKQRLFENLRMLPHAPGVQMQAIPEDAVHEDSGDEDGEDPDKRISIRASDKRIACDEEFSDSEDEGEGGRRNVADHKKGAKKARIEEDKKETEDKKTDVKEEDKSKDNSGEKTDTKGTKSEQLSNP

SR = test: NCI-60 screening, SR; assay type: cell-based; settings: Homo sapiens, read-out: GI50, SR
JAK3 = JAK3 (Homo sapiens, UniProt P52333); test: Kinase inhibition assay; assay type: biochemical
JAK3, sequence (P52333 whole entry): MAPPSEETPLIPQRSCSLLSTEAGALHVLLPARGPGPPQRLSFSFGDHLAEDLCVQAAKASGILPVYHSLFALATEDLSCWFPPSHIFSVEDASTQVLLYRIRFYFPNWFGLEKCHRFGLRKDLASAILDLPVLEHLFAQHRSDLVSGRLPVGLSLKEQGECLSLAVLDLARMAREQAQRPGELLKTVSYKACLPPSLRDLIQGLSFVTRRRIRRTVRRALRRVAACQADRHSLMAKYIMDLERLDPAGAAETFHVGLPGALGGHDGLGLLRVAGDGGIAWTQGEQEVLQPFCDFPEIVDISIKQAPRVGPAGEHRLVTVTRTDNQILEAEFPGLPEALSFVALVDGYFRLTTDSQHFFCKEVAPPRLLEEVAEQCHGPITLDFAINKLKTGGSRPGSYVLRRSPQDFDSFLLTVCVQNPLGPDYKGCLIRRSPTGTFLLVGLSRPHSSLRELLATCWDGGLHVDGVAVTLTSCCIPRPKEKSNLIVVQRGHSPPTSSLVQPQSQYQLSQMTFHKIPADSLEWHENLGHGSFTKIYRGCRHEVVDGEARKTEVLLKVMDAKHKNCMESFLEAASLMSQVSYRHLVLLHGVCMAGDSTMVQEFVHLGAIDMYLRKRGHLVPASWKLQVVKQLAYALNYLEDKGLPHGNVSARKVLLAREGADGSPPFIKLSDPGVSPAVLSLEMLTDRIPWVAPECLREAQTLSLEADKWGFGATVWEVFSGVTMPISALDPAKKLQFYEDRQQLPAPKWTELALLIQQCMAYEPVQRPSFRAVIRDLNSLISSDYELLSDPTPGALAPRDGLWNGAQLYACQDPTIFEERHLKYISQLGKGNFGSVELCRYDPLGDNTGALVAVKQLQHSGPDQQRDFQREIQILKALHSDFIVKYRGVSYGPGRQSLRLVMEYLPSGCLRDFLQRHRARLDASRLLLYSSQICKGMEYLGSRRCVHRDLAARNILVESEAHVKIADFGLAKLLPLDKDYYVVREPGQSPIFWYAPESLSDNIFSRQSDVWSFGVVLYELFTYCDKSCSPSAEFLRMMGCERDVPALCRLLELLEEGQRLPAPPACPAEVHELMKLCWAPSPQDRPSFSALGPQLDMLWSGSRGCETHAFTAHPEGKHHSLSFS

RPMI-8226 cells = test: Apoptosis assay; assay type: cell-based, human; settings: 1 μM, 48 h, flow cytometry
M14 = test: NCI-60 screening, M14; assay type: cell-based; settings: Homo sapiens, M14, read-out: GI50, M14
K-562 = test: NCI-60 screening, K-562; assay type: cell-based; settings: Homo sapiens, K562, read-out: GI50, K-562
SNB-75 = test: NCI-60 screening, SNB-75; assay type: cell-based; settings: Homo sapiens, SNB-75, read-out: GI50, SNB-75
EKVX = test: NCI-60 screening, EKVX; assay type: cell-based; settings: Homo sapiens, read-out: GI50, EKVX
CCRF-CEM = test: NCI-60 screening, CCRF-CEM; assay type: cell-based; settings: Homo sapiens, read-out: GI50, CCRF-CEM
UACC-257 = test: NCI-60 screening, UACC-257; assay type: cell-based; settings: Homo sapiens, UACC-257, read-out: GI50, UACC-257
NCI-H522 = test: NCI-60 screening, NCI-H522; assay type: cell-based; settings: Homo sapiens, NCI-H522, read-out: GI50, NCI-H522
MDA-MB-231/ATCC = test: NCI-60 screening, MDA-MB-231/ATCC; assay type: cell-based; settings: Homo sapiens, MDA-MB-231, read-out: GI50, MDA-MB-231/ATCC
HDAC11 = HDAC11 (Homo sapiens, UniProt Q96DB2); test: In vitro HDAC enzyme assay; assay type: biochemical
HDAC11, sequence (Q96DB2 whole entry): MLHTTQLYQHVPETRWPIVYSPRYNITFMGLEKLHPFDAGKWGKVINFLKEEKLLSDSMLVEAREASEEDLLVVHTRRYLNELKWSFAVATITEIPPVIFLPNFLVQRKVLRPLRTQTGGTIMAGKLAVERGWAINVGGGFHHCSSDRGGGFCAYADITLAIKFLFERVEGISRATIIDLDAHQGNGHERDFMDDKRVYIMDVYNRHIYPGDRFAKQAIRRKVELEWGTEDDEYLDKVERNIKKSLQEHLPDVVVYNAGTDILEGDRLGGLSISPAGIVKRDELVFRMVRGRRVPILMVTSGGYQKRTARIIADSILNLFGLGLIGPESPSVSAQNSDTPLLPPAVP

786-0 = test: NCI-60 screening, 786-0; assay type: cell-based; settings: Homo sapiens, 786-0, read-out: GI50, 786-0

JAK2, sequence (O60674 whole entry): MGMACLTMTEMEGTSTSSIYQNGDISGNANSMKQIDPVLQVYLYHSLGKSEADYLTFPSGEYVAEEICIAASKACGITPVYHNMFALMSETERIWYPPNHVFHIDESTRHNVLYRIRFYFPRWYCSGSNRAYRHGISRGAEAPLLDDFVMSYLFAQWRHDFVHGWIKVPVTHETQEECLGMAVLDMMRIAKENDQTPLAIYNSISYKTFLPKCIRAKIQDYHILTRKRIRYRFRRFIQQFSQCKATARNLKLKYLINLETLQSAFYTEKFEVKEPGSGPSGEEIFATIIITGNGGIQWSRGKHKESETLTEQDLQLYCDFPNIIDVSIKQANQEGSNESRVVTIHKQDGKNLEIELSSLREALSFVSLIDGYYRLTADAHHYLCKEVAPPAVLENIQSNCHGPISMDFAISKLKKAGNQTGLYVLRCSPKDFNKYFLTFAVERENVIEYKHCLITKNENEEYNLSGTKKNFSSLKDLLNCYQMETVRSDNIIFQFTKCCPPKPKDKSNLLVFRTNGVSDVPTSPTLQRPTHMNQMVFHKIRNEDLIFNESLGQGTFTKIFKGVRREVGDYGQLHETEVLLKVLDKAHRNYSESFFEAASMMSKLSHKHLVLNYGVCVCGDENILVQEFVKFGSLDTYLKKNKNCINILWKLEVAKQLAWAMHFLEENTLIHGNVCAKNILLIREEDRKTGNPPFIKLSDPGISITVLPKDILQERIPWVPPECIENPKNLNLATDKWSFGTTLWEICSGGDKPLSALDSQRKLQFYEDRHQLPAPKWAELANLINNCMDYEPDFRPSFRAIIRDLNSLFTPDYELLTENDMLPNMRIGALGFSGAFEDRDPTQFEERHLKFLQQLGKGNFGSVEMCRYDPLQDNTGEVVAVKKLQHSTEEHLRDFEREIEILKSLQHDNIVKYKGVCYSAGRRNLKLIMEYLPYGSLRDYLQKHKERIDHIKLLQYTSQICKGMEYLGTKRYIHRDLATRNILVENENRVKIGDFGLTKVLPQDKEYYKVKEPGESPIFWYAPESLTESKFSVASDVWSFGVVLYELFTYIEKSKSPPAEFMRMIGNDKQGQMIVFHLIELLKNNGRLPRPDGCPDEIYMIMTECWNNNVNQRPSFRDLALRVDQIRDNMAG

O=C(NO)c1ccc(CNc2nc3cccc(-c4ccc5c(c4)OCO5)n3n2)cc1 [Compound 19, 4-(((5-(Benzo[d][1, 3]dioxol-5-yl)-[1,2, 4]triazolo[1,5-a]pyridin-2-yl)amino)methyl)-N-hydroxybenzamide]
GI50 (ACHN): 550 nM
GI50 (UACC-62): 420 nM
IC50 (JAK2): 278 ± 20 nM
IC50 (HDAC8): 640 ± 28.3 nM
GI50 (MOLT-4): 350 nM
IC50 (HDAC6): 4.3 ± 0.1 nM
GI50 (SNB-19): 1000 nM
IC50 (HDAC5): > 50000 nM
HDAC5 IC50 (HDAC5; duplicate, SD <15%): no activity
GI50 (SK-MEL-5): 550 nM
GI50 (HCT-116): 440 nM
GI50 (HCT-15): 690 nM
IC50 (HDAC2): 36.5 ± 0.95 nM
Fold weaker on HDAC2 than HDAC6 (HDAC2; IC50 HDAC2 vs HDAC6): ~8.5 fold
GI50 (SR): 100 nM
IC50 (JAK3): > 10000 nM
JAK3 IC50 (JAK3; duplicate, SD <15%): very poor inhibitory activities
Induction of RPMI-8226 cells apoptosis (RPMI-8226 cells): 85.3%
GI50 (M14): 550 nM
GI50 (K-562): 320 nM
GI50 (SNB-75): 350 nM
GI50 (EKVX): 780 nM
GI50 (CCRF-CEM): 310 nM
GI50 (UACC-257): 360 nM
GI50 (NCI-H522): 100 nM
GI50 (MDA-MB-231/ATCC): 690 nM
IC50 (HDAC11): 1400 ± 102 nM
GI50 (786-0): 1000 nM
